Structures can show the parent of a compound that is named as a salt.
Columns and labels:
Type in all cases: biochemical
α1A-adrenoceptors = target: T1, α1A-adrenoceptors (Rattus norvegicus, UniProt P43140); assay: Functional bioassay, isolated rat tail artery, noradrenaline contraction; conditions: noradrenaline as agonist; for Kb: read-out: pA2 ± S.E.M., α1A (converted)
T1 construct: the middle part of the ventral caudal artery was removed; from tissue; host or cells: isolated rat tail (ventral caudal) artery rings
T1 sequence (P43140 1-466): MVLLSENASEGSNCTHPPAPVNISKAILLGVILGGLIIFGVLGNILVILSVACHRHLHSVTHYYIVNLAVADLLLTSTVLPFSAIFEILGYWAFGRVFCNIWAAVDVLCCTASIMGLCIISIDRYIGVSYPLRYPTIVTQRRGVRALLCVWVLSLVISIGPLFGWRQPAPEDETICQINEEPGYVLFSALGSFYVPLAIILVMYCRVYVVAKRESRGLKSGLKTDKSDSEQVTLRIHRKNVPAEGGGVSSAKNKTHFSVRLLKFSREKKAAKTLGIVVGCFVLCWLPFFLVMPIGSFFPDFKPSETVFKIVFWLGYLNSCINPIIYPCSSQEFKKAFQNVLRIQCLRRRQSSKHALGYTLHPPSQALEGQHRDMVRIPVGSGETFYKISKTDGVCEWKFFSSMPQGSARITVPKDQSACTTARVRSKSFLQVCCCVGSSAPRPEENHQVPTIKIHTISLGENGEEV
Procedure: The isolated artery, cut into ~4 mm long rings, was then horizontally put up between two stainless steel hooks (diameter 0.15 mm). One hook was fastened to the bottom of the chamber and the other to an isometric FDT10-A force displacement transducer (DMT Model 750TOBS, Denmark), linked with Powerlab 4/26 analyzer (ADInstruments), and processed by LabChart 7 software. […] The initial optimal tissues tension was set at 0.75 g. Chloroethylclonidine (3 μM) as the preferential α1B-adrenoreceptor alkylating agent was used during incubation and after 30 min it was completely washed off. Through 100 min of equilibration tissues were stimulated with noradrenaline (1 μM) four times with washing out until the contractile response become constant. Two cumulative concentration-response curves to noradrenaline, at an interval of 60 min, were established on each arterial ring both in the presence and absence of antagonist. The incubation with antagonists went on for 30 min. The experiments were carried out in the constant presence of yohimbine (0.1 μM) and propranolol (1 μM) to block α2- and β-adrenoceptors, respectively in order to minimize the involvement of these adrenoceptors in the response to noradrenaline.
(§1) Data are means ± S.E.M. of at least 4 separate experiments. To establish Hill slopes for the agonist concentration–response curves and calculate EC50 values, curves were fitted to all the data by non-linear regression. The EC50 value in the presence and absence of antagonists was used to ascertain the concentration ratio (CR). Schild analysis was performed.

α1D-adrenoreceptors = target: T2, α1D-adrenoreceptors (Rattus norvegicus, UniProt P23944); assay: Functional bioassay, isolated rat aorta, noradrenaline contraction; design: had aorta removed, denuded of endothelium and incubated in the Krebs-Henseleit solution; from tissue; host or cells: isolated rat aorta rings; conditions: noradrenaline as agonist; for Kb: read-out: pA2 ± S.E.M., α1D (converted)
T2 sequence (P23944 1-561): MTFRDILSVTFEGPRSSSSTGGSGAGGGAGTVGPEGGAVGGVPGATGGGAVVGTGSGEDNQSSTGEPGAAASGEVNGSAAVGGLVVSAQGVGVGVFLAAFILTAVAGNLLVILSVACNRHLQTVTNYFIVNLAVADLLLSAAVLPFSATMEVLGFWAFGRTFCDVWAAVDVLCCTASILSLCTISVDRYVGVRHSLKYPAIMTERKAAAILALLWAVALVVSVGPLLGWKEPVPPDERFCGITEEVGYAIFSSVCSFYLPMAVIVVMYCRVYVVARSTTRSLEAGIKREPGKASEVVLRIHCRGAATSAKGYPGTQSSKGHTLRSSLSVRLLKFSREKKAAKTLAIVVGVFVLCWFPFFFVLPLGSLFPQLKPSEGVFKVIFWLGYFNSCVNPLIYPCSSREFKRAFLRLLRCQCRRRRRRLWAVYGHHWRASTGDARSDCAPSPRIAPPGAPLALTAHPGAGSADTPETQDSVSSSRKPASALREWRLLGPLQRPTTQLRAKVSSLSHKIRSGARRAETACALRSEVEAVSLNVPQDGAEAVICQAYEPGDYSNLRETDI
Procedure: Finally, the influence on α1D-adrenoreceptors was investigated using the isolated rat aorta. […] The aorta rings were maintained at optimal tension of 2.0 g. During 3 h of equilibration tissues were stimulated with noradrenaline three times (0.3 μM). Two cumulative concentration-response curves to noradrenaline, at an interval of 60 min, were established on each tissue both in the presence and absence of antagonist. The incubation with antagonists went on for 30 min. The experiments were carried out in the constant presence of yohimbine (0.1 μM) and propranolol (1 μM) to block α2- and β-adrenoceptors, respectively.
as §1

α1B-adrenoceptors = target: T3, α1B-adrenoceptors (Mus musculus, UniProt P97717); assay: Functional bioassay, isolated mouse spleen, noradrenaline contraction; conditions: noradrenaline as agonist; for Kb: read-out: pA2 ± S.E.M., α1B (converted)
T3 construct: The spleen was removed from male mice; from tissue; host or cells: isolated mouse spleen
T3 sequence (P97717 1-514): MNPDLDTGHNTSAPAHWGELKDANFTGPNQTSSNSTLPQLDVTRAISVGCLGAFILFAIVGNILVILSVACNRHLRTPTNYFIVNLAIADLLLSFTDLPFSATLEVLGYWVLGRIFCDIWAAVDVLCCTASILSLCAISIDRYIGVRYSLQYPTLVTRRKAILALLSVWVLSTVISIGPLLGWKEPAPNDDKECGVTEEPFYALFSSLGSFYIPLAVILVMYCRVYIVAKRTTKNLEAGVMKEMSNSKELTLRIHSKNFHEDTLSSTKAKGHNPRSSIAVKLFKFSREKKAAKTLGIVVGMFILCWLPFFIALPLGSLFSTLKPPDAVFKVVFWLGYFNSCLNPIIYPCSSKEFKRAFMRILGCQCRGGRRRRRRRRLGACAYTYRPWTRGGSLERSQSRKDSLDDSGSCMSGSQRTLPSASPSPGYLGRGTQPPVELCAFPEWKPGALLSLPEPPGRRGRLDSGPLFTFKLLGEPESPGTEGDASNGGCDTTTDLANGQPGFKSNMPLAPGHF
Procedure: The influence on α1B-adrenoceptors was evaluated using the isolated mouse spleen. The spleen was removed from male mice right after killing the anesthetized animal by cervical dislocation. […] The initial optimal tissues tension was set at 1.0 g. Through the 100 min of equilibration tissues were stimulated with noradrenaline (0.1−10.0 μM) three times with washing out until the contractile response become constant. Two cumulative concentration-response curves to noradrenaline, at an interval of 60 min, were established on each tissue both in the presence and absence of antagonist. The incubation with antagonists went on for 30 min. The experiments were carried out in the constant presence of propranolol (1 μM) to block β-adrenoceptors, and minimize the involvement of these adrenoceptors in the response to noradrenaline.
as §1

SMILES	Schild slope ± S.E.M., α1A (α1A-adrenoceptors)	Kb (α1A-adrenoceptors) [nM]	Schild slope ± S.E.M., α1D (α1D-adrenoreceptors)	Kb (α1D-adrenoreceptors) [nM]	Schild slope ± S.E.M., α1B (α1B-adrenoceptors)	Kb (α1B-adrenoceptors) [nM]
COc1ccccc1N1CCN(CCCOc2c(C)cc(C)cc2C)CC1 [HBK-18, 1N-[3-(2,4,6-trimethylphenoxy)propyl]-4N-(2-methoxyphenyl)piperazine hydrochloride]	1.10 ± 0.06	3.24	1.01 ± 0.05	1.2	1.03 ± 0.18	4.47
COc1ccccc1N1CCN(CCOCCOc2c(C)cccc2Cl)CC1.Cl [HBK-15, 1-[(2-chloro-6-methylphenoxy)ethoxyethyl]-4-(2-methoxyphenyl)piperazine hydrochloride]	1.01 ± 0.18	19.5	1.09 ± 0.09	1.26	0.96 ± 0.01	21.4
COc1ccccc1N1CCN(CCOCCOc2c(C)cccc2C)CC1.Cl [HBK-14, 1-[(2,6-dimethylphenoxy)ethoxyethyl]-4-(2-methoxyphenyl)piperazine hydrochloride]	0.97 ± 0.15	10.2	1.09 ± 0.10	1.38	1.03 ± 0.03	20

Other lines, results leading:

Schild slope ± S.E.M., α1A (α1A-adrenoceptors)	Kb (α1A-adrenoceptors) [nM]	Schild slope ± S.E.M., α1D (α1D-adrenoreceptors)	Kb (α1D-adrenoreceptors) [nM]	Schild slope ± S.E.M., α1B (α1B-adrenoceptors)	Kb (α1B-adrenoceptors) [nM]	SMILES
0.96 ± 0.05	1.23	1.03 ± 0.09	4.9	1.06 ± 0.05	8.51	COc1ccccc1N1CCN(CCCOc2cc(C)cc(C)c2C)CC1 [HBK-19, 1N-[3-(2,3,5-trimethylphenoxy)propyl]-4N-(2-methoxyphenyl)piperazine hydrochloride]
1.06 ± 0.08	1.78	1.11 ± 0.12	0.724	1.03 ± 0.12	6.17	COc1ccccc1N1CCN(CCCOc2cc(C)ccc2Cl)CC1 [HBK-16, 1N-[3-(2-chloro-5-methylphenoxy)propyl]-4N-(2-methoxyphenyl)piperazine hydrochloride]

Reference: article PMC4971072, “Chemically Homogenous Compounds with Antagonistic Properties at All α1-Adrenoceptor Subtypes but not β1-Adrenoceptor Attenuate Adrenaline-Induced Arrhythmia in Rats” (Frontiers in Pharmacology, 2016)
